Data from ChEMBL document CHEMBL3137667, “[Drug-induced liver injury; fourteenth updated edition of the bibliographic database of liver injuries and related drugs]” (Gastroenterol Clin Biol, 2004).
*1 amine or outer side, *2 acyl side, *3 side chain or, on linkers, in order; H or OH if unused. Where a SMILES comes first, the peptide text is derived from it. Bridges are numbered along the chain shown (N, C = ends). Roman numbers before positions name the chains, in order. [ ]: non-standard residue; d: D form. Actinocin(9to1) = Cc1c2oc3c(C)ccc(C(=O)[*:1])c3nc-2c(C(=O)[*:2])c(N)c1=O; NMeV = CN[C@H](C(=O)O)C(C)C; Sar = CNCC(=O)O

Columns and labels:
[1] = Comments (NB not yet translated). [column 'COMMENTAIRES' in source]; conditions: human
[2] = human
[3] = human; remark: listed apart in the source
[4] = human; remark: listed apart in the source
[5] = human; remark: listed apart in the source
[6] = human, serum, 4383 h
[7] = human; remark: listed apart in the source
[8] = human; remark: listed apart in the source
[9] = human; remark: listed apart in the source
[10] = human; remark: listed apart in the source
[11] = human; remark: listed apart in the source
[12] = Highest frequency of moderate liver toxicity observed during clinical trials, expressed as a percentage. [column '% BIOL' in source]; conditions: human
[13] = Highest frequency of acute liver toxicity observed during clinical trials, expressed as a percentage. [column '% AIGUE' in source]; conditions: human
[14] = Presence of at least one case with successful reintroduction. [column 'REINT' in source]; conditions: human
[15] = human, serum
[16] = Proposed mechanism(s) of liver damage. [column 'MEC' in source]; conditions: human
[17] = Times to onset, minimal and maximal, observed in the indexed observations. [column 'DELAI' in source]; conditions: human
[18] = human, serum; remark: listed apart in the source
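Wherever Hepatotoxicity (association with vascular disease) is given: count of indexed literature references reporting vascular liver injury in humans, e.g. peliosis hepatitis, hepatic veno-occlusive disease or Budd-Chiari syndrome.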
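Wherever Hepatotoxicity (benign tumour) is given: value is a count of indexed literature references citing a benign tumour confirmed by histopathology.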
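Wherever Hepatotoxicity (choleostasis) is given: human cholestatic liver injury, shown by histopathology or by peak ALT or AST elevation over alkaline phosphatase ratio below 2, value counts indexed literature reports.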
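Wherever Hepatotoxicity (chronic liver disease) is given: chronic liver injury confirmed by histopathology or persistently raised serum aminotransferase activity beyond 6 months, value given as the count of indexed literature references.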
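Wherever Hepatotoxicity (cirrhosis) is given: value is a count of indexed literature references reporting cirrhosis confirmed by histopathology.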
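Wherever Hepatotoxicity (cytolytic) is given: human cytolytic liver injury, shown by histopathology or by a ratio above 5 of peak ALT or AST elevation to alkaline phosphatase elevation, value counts indexed references.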
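Wherever Hepatotoxicity (granulomatous hepatitis) is given: value is a count of indexed literature references reporting granulomatous liver disease confirmed by histopathology.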
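Wherever Hepatotoxicity (malignant tumour) is given: malignant tumour confirmed by histopathology, value gives the count of indexed literature references reporting it.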
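Wherever Hepatotoxicity (severe hepatitis) is given: human clinical data: severe hepatitis, meaning potentially life-threatening liver failure or clinically observed cases, the value counts how many indexed literature references report it.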
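Wherever Hepatotoxicity (steatosis) is given: steatosis confirmed by histopathology, value is the count of indexed references.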

Compound | Hepatotoxicity (comment) [1] | Hepatotoxicity (severe hepatitis) [2] | Hepatotoxicity (cytolytic) [3] | Hepatotoxicity (steatosis) [4] | Hepatotoxicity (malignant tumour) [5] | Hepatotoxicity (chronic liver disease) [6] | Hepatotoxicity (cirrhosis) [7] | Hepatotoxicity (benign tumour) [8] | Hepatotoxicity (choleostasis) [9] | Hepatotoxicity (association with vascular disease) [10] | Hepatotoxicity (granulomatous hepatitis) [11] | Hepatotoxicity (moderate) [12] [%] | Hepatotoxicity (acute) [13] [%] | Hepatotoxicity (successful reintroduction) [14] | Hepatotoxicity (acute) [15] | Hepatotoxicity (mechanism) [16] | Hepatotoxicity (time to onset) [17] | Hepatotoxicity (moderate) [18]
O=C1Nc2ccccc2C1(c1ccc(O)cc1)c1ccc(O)cc1 [OXYPHENISATINE] | AC_ANTI-ADN/-N/-ML | 1 | 1 | 0 | 0 | 27 | 8 | 0 | 0 | 0 | 0 | 0 | 0 | yes | 6 | Allergic | 1 week - 13 years | 0
CC(=O)OCC1=C(C(=O)O)N2C(=O)[C@@H](NC(=O)CSc3ccncc3)[C@H]2SC1 [CEPHAPIRIN] | RC/CEFALOTINE | 0 | 0 | 0 | 0 | 0 | 0 | 0 | 1 | 0 | 0 | 0 | 0 | yes | 1 | Allergic | 1 week | 0
CCOC(=O)n1ccn(C)c1=S [CARBIMAZOLE] | RC/METHIMAZOLE/BENZYLTHIOURACILE | 3 | 5 | 2 | 0 | 0 | 0 | 0 | 14 | 0 | 1 | 0 | 0 | yes | 18 | Allergic | 1 day - 5 years | 2
COc1ccc(Cl)cc1C(=O)NCCc1ccc(S(=O)(=O)NC(=O)NC2CCCCC2)cc1 [GLYBURIDE] | CHOLANGITE DUCTOPENIE | 0 | 2 | 0 | 0 | 0 | 1 | 0 | 10 | 0 | 2 | 6.7 | 0 | yes | 14 | Allergic, Dose-dependant | 2 weeks - 7 years | 7
CC1(C)S[C@@H]2[C@H](NC(=O)C(C(=O)O)c3ccccc3)C(=O)N2[C@H]1C(=O)O (some centres undefined) [CARBENICILLIN] | RC/TICARCILLINE | 0 | 5 | 0 | 0 | 0 | 0 | 0 | 0 | 0 | 0 | 56 | 0.7 | yes | 5 | Dose-dependant | 4 days - 3 months | 13
Cc1c2oc3c(C)ccc(C(=O)N[C@@H]4C(=O)N[C@H](C(C)C)C(=O)N5CCC[C@H]5C(=O)N(C)CC(=O)N(C)[C@@H](C(C)C)C(=O)O[C@@H]4C)c3nc-2c(C(=O)N[C@@H]2C(=O)N[C@H](C(C)C)C(=O)N3CCC[C@H]3C(=O)N(C)CC(=O)N(C)[C@@H](C(C)C)C(=O)O[C@@H]2C)c(N)c1=O [DACTINOMYCIN] (I: T[dV]P[Sar][NMeV] / II: T[dV]P[Sar][NMeV]; ester I:1-I:C, II:1-II:C; linker I:N-II:N via Actinocin(9to1)) | I/RADIOTHERAPIE HNR | 6 | 5 | 0 | 0 | 1 | 0 | 1 | 0 | 16 | 0 | 12 | 8.8 | yes | 7 | Dose-dependant | 3 weeks - 2 months | 8
CCCCOCC(CN1C(=O)N(CC(COCCCC)OC(N)=O)C(=O)C(CC)(c2ccccc2)C1=O)OC(N)=O (centres undefined) [DIFEBARBAMATE] | AC_ANTI-N/-ML I/PAROXETINE | 5 | 9 | 1 | 0 | 0 | 0 | 0 | 1 | 0 | 1 | 0 | 0 | yes | 9 | Allergic | 8 days - 15 months | 2
CC(C)c1nc(CN(C)C(=O)N[C@H](C(=O)N[C@@H](Cc2ccccc2)C[C@H](O)[C@H](Cc2ccccc2)NC(=O)OCc2cncs2)C(C)C)cs1 [RITONAVIR] | REACTIVATION_HVB/HVC | 1 | 11 | 1 | 0 | 0 | 0 | 0 | 2 | 0 | 0 | 44 | 32.1 | yes | 14 | Dose-dependant | < 1 day - 6 months | 10
